≈ marks a conversion by molar mass, not a printed value.
Experiments:
[1] = Solubility in WFI and DPBS; UPLC C18 retention time as hydrophobicity; conditions: UPLC analysis on a C18 column
Procedure: (§4) Approximately 5 mg of each peptide (acetate form) was weighed out into separate LoBind Eppendorf tubes and 50 μL water for injection (WFI) was added to each tube. Each sample was centrifuged at 13000 rpm for 2 min and diluted for measuring the optical density (OD) at 280 nm using a NanoDrop 2000 spectrophotometer (ThermoScientific, Wilmington, Del.). Each concentrated sample was diluted 1:20 into Dulbecco's phosphate buffered saline (DPBS, without potassium and calcium; Invitrogen, Carlsbad, Calif.). The samples were monitored for precipitation, and each sample was vortexed for 5 min and centrifuged at 13000 rpm for 2 min. The OD of each DPBS supernatant was measured to determine peptide concentration at saturation.
(§5) In addition, the ultra performance liquid chromatography (UPLC) retention time of these peptides on a C18 column was measured to reflect their apparent relative hydrophobicity (Table 3).

in vivo [2] = experiment: in vivo; set-up: species or system cynomolgus monkeys (Macaca fascicularis); conditions: cynomolgus monkey
Procedure: Primate studies and sample collection. […] Two healthy animals were used for each route of administration. The animals were sedated and injected subcutaneously with 2 mg/kg of the compound or orally by intragastric gavage with 4 mg/kg of the compound.
(§1) Analyses. Analysis of plasma samples, determination of plasma half-life and complement inhibitory activity in plasma were performed as described in Example 5.

C3b = biological target: T1, C3b (Homo sapiens, UniProt P01024); experiment: SPR kinetic analysis of binding to immobilized C3b (Biacore, single cycle kinetics)
T1 construct: Biotinylated C3b was captured site-specifically on a streptavidin chip
Procedure: SPR analysis. The interaction of the compstatin analogs with C3b was characterized using a Biacore 3000 instrument (GE Healthcare, Corp., Piscataway, N.J.). The running buffer was PBS, pH 7.4 (10 mM sodium phosphate, 150 mM NaCl) with 0.005% Tween-20. Biotinylated C3b was captured site-specifically on a streptavidin chip at about 3000 and 5000 RU density; two untreated flow cells were used as reference surface. For kinetic analysis, sets of five increasing concentrations of a particular compound were injected over the chip surface one after the other in a single cycle. […] Processed biosensor data were globally fitted to a 1:1 Langmuir binding model (kindly provided by GE Helthcare), and the equilibrium dissociation constant (KD) was calculated from the equation KD=kd/ka. Each assay was performed at least twice.

in vivo [3] = conditions: cynomolgus monkey, iv, 2 mg/kg
Procedure: Primate studies and sample collection. Evaluation of plasma half-life and generation of major metabolites was performed at the Simian Conservation Breeding and Research Center (SICONBREC, Makati City, Philippines) in cynomolgus monkeys (Macaca fascicularis). […] Blood samples (1-2 mL) were collected immediately before and at various time points after compound injection (2, 5 and 30 min; 1, 2, 4, 6, and 24 hours) in EDTA-coated Vacutainer tubes to prevent coagulation and complement activation, and centrifuged at ˜800×g for 10 min to obtain plasma. Plasma samples were immediately frozen and stored for further analysis. All NHP studies were performed in accordance with animal welfare laws and regulations.
Analysis of plasma samples. Prior to analysis by UPLC-MS, compstatin analogs in the plasma samples were extracted by solid phase extraction (SPE) in a 96-well plate format (HLB Oasis 30 μm, 10 mg; Waters, Milford, Mass.). […] Eluted peptides were directly analyzed by HDMS; the ESI source capillary voltage was set to 3.2 kV, the cone voltage to 30 V and the source temperature to 120° C. […]
Determination of plasma half-life. […] All calibration samples were subjected to SPE and measured using UPLC-HDMS as described above. […] For the pharmacokinetic analysis, the plasma concentration (Cp) at each time point was calculated from the extracted peak area of each peptide using the corresponding standard curve.

[4] = 5 min, pH 7.4
Procedure: as §4, §5

[5] = test system: classical pathway of complement; experiment: ELISA inhibition of classical pathway complement activation; type: biochemical; conditions: read-out: IC50, peptide concentration to reach 50% inhibition of classical pathway complement activation; Table 1
Procedure: Inhibition of complement activation. The ability of the compstatin analogs to inhibit the activation of the classical pathway of complement was assessed by ELISA as described elsewhere (Katragadda et al., 2006, supra; Mallik et al., 2005, supra). The percent inhibition was plotted against the peptide concentration, and the resulting data set was fitted to the logistic dose-response function using Origin 8.0 software. IC50 values were obtained from the fitted parameters that produced the lowest χ2 value. Each analog was assayed at least three times.

in vitro = conditions: human, plasma
Procedure: Plasma stability. Fresh human plasma containing lepirudin (3.75 units/ml) was incubated at 37° C. with Cp30 (SEQ ID NO:7), Cp40 (SEQ ID NO:18) or control peptide 2B at a final concentration of 20 μM each. Samples of 100 μL were taken for solid phase extraction. A 96-well plate HLB Oasis 30 μm 10 mg (Waters, Milford, Mass.) was employed for extraction. The SPE material was conditioned by addition of 500 μL each of methanol and ACN followed by addition of 500 μL of milli-Q water. Sample was diluted 1:1 with 4% H3PO4. After loading the sample, washing was carried out twice with 500 μL of 10% ACN in 0.1% formic acid. Sample was eluted with 200 μL of 65% ACN in 0.1% formic acid and collected in the Eppendorf LoBind collection plate. Sample for UPLC-MS was diluted 1:10 in milli-Q water with 0.1% formic acid. Cp20 (SEQ ID NO:3) was spiked in each sample before SPE as an internal standard.
UPLC-MS analysis. UPLC-MS analysis was performed on a SYNAPT HDMS (Waters, Milford, Mass.) equipped with an ESI source controlled by MassLynx 4.1 software (Waters). Each sample was injected in quadruplicates. An online ACQUITY UPLC (Waters) system was used for peptide separation by reversed-phase liquid chromatography. The capillary voltage was 3.2 kV, the cone voltage was 30 V and the source temperature was 120° C. [Glu1]-fibrinogen peptide was used for lock-mass correction with a sampling rate of 30 s. […]

[6] = test system: complement activation via the alternative pathway; experiment: Erythrocyte hemolytic assay on plasma samples of treated cynomolgus monkeys; type: in vivo, cynomolgus monkeys (Macaca fascicularis); conditions: subcutaneous injection 2 mg/kg
Procedure: (§2) Hemolytic assay. Rabbit erythrocytes were washed with phosphate-buffered saline (PBS) followed by washing with Veronal-buffered saline (VBS)^Mg+/EGTA. A 1:20 dilution was prepared in VBS buffer. Plasma samples (1:10 in VBS−100 μl) was incubated with the rabbit erythrocytes solution (50 μl) in a 96-well plate at 37° C. for 1 h. EDTA (0.2 mM-15μl) was added to stop the reaction and plate was centrifuged (2500×g 3 min). Supernatant (100μl) was transferred to a new well and optical density was measured at 405 nm. Incubation of erythrocytes with water or buffer was used as positive (100% lysis) and negative (0% lysis) control, respectively.
as §1

[7] = test system: complement activation via the alternative pathway; experiment: Erythrocyte hemolytic assay on plasma samples of treated baboon; type: in vivo; conditions: intramuscular injection 2 mg/kg
Procedure: as §2
(§3) Extraction of compstatin analog from plasma samples and LC-MS/MS analysis were performed as described in Example 7. A hemolytic assay was performed as described in Example 5.

in vivo [8] = experiment: in vivo; set-up: species or system baboon; conditions: 2 mg/kg
Procedure: A juvenile baboon was injected intramuscularly with 2 mg/kg Cp40 (SEQ ID NO:18) Blood samples for the LC-MS/MS assay were collected in 1-ml plastic tubes containing 50 μg lepirudin, and centrifuged at 2000 g for 20 min at 4° C. for plasma separation. Plasma samples were stored at −70° C. Blood samples were collected at pre-determined time intervals after injection of the analog. Samples were treated with SPE and analyzed using LC-MS/MS. Calibration curves were created using standard peptides at various concentrations in plasma to determine peptide concentration in each sample.
as §3

T1 sequence (P01024 23-667 limits assumed): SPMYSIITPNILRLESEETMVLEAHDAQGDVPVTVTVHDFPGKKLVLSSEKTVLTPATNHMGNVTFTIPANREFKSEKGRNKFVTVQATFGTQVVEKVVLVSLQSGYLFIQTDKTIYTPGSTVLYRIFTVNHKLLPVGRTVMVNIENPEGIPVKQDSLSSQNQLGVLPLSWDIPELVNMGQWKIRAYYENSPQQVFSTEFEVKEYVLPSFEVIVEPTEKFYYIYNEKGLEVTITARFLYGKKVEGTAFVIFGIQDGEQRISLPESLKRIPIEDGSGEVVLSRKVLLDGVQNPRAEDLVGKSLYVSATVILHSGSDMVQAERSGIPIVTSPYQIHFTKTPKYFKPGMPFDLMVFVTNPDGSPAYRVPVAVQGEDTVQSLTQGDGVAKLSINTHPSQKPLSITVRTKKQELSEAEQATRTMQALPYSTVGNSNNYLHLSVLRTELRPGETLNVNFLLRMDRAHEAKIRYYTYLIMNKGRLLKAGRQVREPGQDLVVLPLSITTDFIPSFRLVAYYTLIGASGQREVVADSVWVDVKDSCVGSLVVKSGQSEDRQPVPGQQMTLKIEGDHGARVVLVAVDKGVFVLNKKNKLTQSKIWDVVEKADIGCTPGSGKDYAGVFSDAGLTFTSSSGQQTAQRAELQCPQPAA
T1 sequence (P01024 749-1663 partner limits assumed): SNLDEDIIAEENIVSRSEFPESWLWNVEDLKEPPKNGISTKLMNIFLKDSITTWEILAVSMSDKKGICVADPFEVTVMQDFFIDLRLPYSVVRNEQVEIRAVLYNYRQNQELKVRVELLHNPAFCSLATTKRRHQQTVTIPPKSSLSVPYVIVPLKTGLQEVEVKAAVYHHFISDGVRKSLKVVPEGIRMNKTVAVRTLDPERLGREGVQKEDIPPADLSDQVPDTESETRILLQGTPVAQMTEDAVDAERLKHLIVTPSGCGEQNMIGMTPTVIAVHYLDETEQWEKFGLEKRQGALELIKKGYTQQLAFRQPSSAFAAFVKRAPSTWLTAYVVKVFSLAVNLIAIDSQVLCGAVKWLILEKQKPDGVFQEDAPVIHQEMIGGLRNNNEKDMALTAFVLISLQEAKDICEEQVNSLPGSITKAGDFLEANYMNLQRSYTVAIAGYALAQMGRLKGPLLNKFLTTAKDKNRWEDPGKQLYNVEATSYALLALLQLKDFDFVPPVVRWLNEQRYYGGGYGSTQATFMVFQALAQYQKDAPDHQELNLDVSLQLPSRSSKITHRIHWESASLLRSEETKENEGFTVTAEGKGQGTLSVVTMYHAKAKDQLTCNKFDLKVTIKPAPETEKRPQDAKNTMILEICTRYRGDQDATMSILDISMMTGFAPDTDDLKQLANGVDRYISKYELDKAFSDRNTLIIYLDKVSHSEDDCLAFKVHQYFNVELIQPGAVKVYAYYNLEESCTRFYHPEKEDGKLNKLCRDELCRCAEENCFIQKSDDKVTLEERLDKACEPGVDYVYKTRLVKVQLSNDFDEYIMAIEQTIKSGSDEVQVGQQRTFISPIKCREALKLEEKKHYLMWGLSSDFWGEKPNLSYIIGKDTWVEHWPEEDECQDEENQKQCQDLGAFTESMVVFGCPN
Procedure for physchem: as §4, §5

CC[C@H](C)[C@H](NC(=O)[C@H](N)Cc1ccc(O)cc1)C(=O)N[C@H]1CSSC[C@@H](C(=O)N(C)[C@H](C(N)=O)[C@@H](C)CC)NC(=O)[C@H](CCCNC(=N)N)NC(=O)[C@H](Cc2c[nH]cn2)NC(=O)[C@H](C)NC(=O)CN(C)C(=O)[C@H](Cc2c[nH]c3ccccc23)NC(=O)[C@H](CC(=O)O)NC(=O)[C@H](CCC(N)=O)NC(=O)[C@H](Cc2cn(C)c3ccccc23)NC(=O)[C@H](C(C)C)NC1=O [peptide 14, dTyr-Ile-[Cys-Val-Trp(Me)-Gln-Asp-Trp-Sar-Ala-His-Arg-Cys]-mIle-NH2]
Hydrophobicity Retention Time [1]: 4.73 min | Time to reach the stated plasma concentration (in vivo [2]; po, 4 mg/kg): within one hour | level at time molar (in vivo [2]; po, 4 mg/kg): ~0.023 µM | Cmax (in vivo [2]; sc, 2 mg/kg): ~12.5 µM | Time to peak plasma concentration (in vivo [2]; sc, 2 mg/kg): 4 to 5 h | ka: association rate (C3b; Table 1, N-terminal analogs): 2.8 ± 0.5 10^6/Ms | ka: association rate (C3b; Table 2, Cp40-based analogs): 2.8 ± 0.6 10^6/Ms | Cmax (in vivo [3]): ~28 µM | Solubility DPBS pH7.4 [4]: 0.8 mg/mL | IC50 [5]: 66 ± 8 nM | remaining at 120 h, 20 μM (in vitro): > 55% | Complement inhibitory activity versus analog concentration in plasma samples [6]: closely track the concentration of analog | Complement inhibitory activity versus analog concentration in plasma samples [7]: closely track the concentration of analog | solubility (physchem): > 50000 µg/mL | solubility at 5 min (physchem; pH 7.4): 800 µg/mL (≈ 447 µM) | Time to peak plasma concentration (in vivo [8]): 5 to 6 h | Cmax (in vivo [8]; monkey, im): ~10 µM
